The source of these data is US20070244080A1, “Method for Treatment of Inflammatory Disorders Using Triptolide Compounds” (priority 2004, published 2007).

Data set [1] has as its system IL-2 production in Jurkat cells. To be noted: cited from earlier work.
A short description of data set [2]: Conversion of triptolide prodrug to triptolide in blood serum (TLC). To be noted: 37° C. The format is in vitro ADME. The protocol:
A solution of triptolide succinate in DMSO (25 mg/ml, 0.1 ml) was mixed with 0.5 ml of rat serum. The mixture was incubated at 37° C. Aliquots of the mixture were taken at 1, 3, 5, 15, 45 minutes and 18 hours and analyzed by thin layer chromatography (TLC). The TLC plates were developed in 1:5 CH2Cl2/Et2O. After development, the plates were treated with iodine vapor and examined under a UV lamp. Triptolide and triptolide succinate were used as reference compounds (Rf=0.60 and 0.45, respectively). […] After 15 minutes, the triptolide succinate spot had disappeared (Rf=0.45), and a new spot corresponding to triptolide had appeared (Rf=0.60).

The conditions of data set [3]: in vivo; cited from earlier work.
In data set [4] the test system is human T cell lymphoma (Jurkat) cells. To be noted: relative to native triptolide; cited from earlier work.
Data set [5] can be described thus: Phase I clinical trial, tolerability. The format is in vivo, human. As to conditions: 0.675 μg/m^2 by i.v. infusion, weekly intervals. The procedure:
In accordance with the invention, administration of a triptolide compound is expected to inhibit cytokine production, particularly TGF-β production, in a patient suffering from obliterative airway disease, renal fibrosis, diabetic nephropathy, or liver fibrosis, thereby reducing the symptoms of the disease. A range of doses is practical for this treatment. […] This dose calculates to about 20 μg/kg. Treatment in this clinical study is administered at weekly intervals.

The test system of data set [6] is IL-2. The data set can be described thus: Suppression of cytokine production, PMA/ionomycin-induced Jurkat cells, ELISA. The format is cell-based, human. To be noted: 8 hr. The procedure: (§1) Triptolide suppresses in vitro production of proinflammatory cytokines such as IFN-γ, TNF-α, IL-1β and IL-6, as shown in Table 1. To obtain the data, Jurkat cells were stimulated for 8 hr by PMA and ionomycin. Human peripheral blood mononuclear cells (PBMC) from a single donor were incubated for 24 hr with PHA. At the end of the culture period, each supernatant was harvested, and the cytokine content was assayed by ELISA.

The subject of another data set is IFN-γ. The data set can be described thus: Suppression of cytokine production, PHA-induced PBMC, ELISA. As to conditions: 24 hr, single donor. The format is cell-based, human. The protocol:
as §1

For another data set, the system named is IL-1β. The data set is described as above. The format is cell-based, human. To be noted: 24 hr, single donor. The protocol:
as §1

The subject of data set [7] is IL-2. The description is as above. The format is cell-based, human. To be noted: 24 hr, single donor. The protocol: as §1
In a further data set the test system is IL-6. The data set is described as above. To be noted: 24 hr, single donor. The format is cell-based, human. The protocol:
as §1

Another data set deals with TNF-α. The description is as above. As to conditions: 24 hr, single donor. The format is cell-based, human. The procedure:
as §1

The subject of another data set is IL-8. As to conditions: bronchial epithelial cells; cited from earlier work.
In data set [8] the test system is cytokine genes in activated Jurkat cells. As to conditions: cited from earlier work.

Turning to `CC(C)[C@]12O[C@H]1[C@@H]1O[C@]13[C@]1(O[C@H]1C[C@H]1c4c(C(=O)c5ccccc5)oc(OC(=O)c5ccccc5)c4CC[C@@]13C)[C@@H]2O` [PG796, 18-deoxo-19-dehydro-18-benzoyloxy-19-benzoyl triptolide], the “IL-2 inhibition activity compared with triptolide 14-succinate” value in data set [1] (relative to the prodrug triptolide 14-succinate) is recorded as “higher level of activity”.
triptolide 14-succinate [PG490-88]: the figures for the “Species detected by TLC after incubation in rat serum” value in data set [2] (after 3 minutes) and in data set [2] (after 15 minutes) were “only triptolide succinate was detected” and “disappeared”, respectively. In data set [1] (after incubation in plasma), the “Suppression of IL-2 production” value is “in vitro activity in suppression of IL-2 production”. The “Efficacy in animal models of immunosuppression” value in data set [3] was “efficacy in several animal models of immunosuppression”.
Regarding `CC(C)[C@]12O[C@H]1[C@@H]1O[C@]13[C@]1(O[C@H]1C[C@H]1C4=C(CC[C@@]13C)C(=O)OC4)[C@H]2F` [PG763, 14-deoxy-14α-fluoro triptolide], the “IL-2 inhibition activity compared with native triptolide” value in data set [1] (relative to native triptolide) was “nearly equivalent”. Besides, the “Cytotoxicity compared with native triptolide” value in data set [4] is “nearly equivalent”.
As to “triptolide succinate sodium salt [PG490-88Na]”, the “Tolerability in phase I clinical trial” value in data set [5] is “well tolerated with no drug-related toxicity”.
With triptolide, the “IC50, suppression of IL-2 production” value worked out at 1.3 ng/mL with IL-2 [6] and 0.38 ng/mL with IL-2 [7]. The “IC50, suppression of IFN-γ production” value with IFN-γ turned out to be 0.52 ng/mL. In addition, the “IC50, suppression of IL-1β production” value with IL-1β amounted to 0.45 ng/mL. The “IC50, suppression of IL-6 production” value with IL-6 was determined as 1.5 ng/mL. Moreover, the “IC50, suppression of TNF-α production” value in the data set on TNF-α was found to be 0.35 ng/mL. Moreover, in the data set with IL-8, the “IL-8 mRNA and protein expression” value is recorded as “suppresses IL-8 expression”. Further, the “Expression of cytokine genes (IL-2, IL-3, IL-6, IL-8, IL-13, TNF-α, TGF-β, MIP-1α, MIP-1β, GM-CSF, RANTES)” value in [8] is given as “inhibits the expression of several cytokine genes”.
